# Source: article PMC12435366, “Maleic anhydride derived diphosphines: adaptable chelators for receptor-targeted ^99mTc, ^64Cu and ^188Re radiotracers” (Chemical Science, 2025)
# Test system: parental DU145 cells that do not express PSMA
# Experiment: In vitro uptake of 99mTc tracers in parental DU145 cells
# Type: cell-based
# Conditions: PSMA-negative DU145 cells, 1 h
# Procedure: To compare the relative uptake and specificity of the new radiotracers for PSMA, [^99mTcO2(DP^Ph-PSMAt)2]^+, [^99mTcO2(DP^An-PSMAt)2]^+ and [^99mTcO2(DP^MEP-PSMAt)2]^+ (50 kBq) were purified from unreacted ^99mTc precursors and excess DP-PSMAt peptide, and each incubated with PSMA-expressing DU145-PSMA+ prostate cancer cells[33] or LNCaP prostate cancer cells (5 × 10^5 cells). After 1 h incubation, uptake of each radiotracer was quantified. […]
# 4.9 99mTc uptake in DU145, DU145-PSMA+ and LNCaP cells
# The following experiment was performed in biological triplicate.
# A panel of cell lines were selected that either expressed GCP(II)/PSMA (DU145-PSMA+ (genetically modified to express PSMA),12 and LNCaP (CRL‐1740)), or had low GCP(II)/PSMA expression (DU145 (HTB-81)). All cell lines were cultured in RPMI 1640 medium (R0883, Sigma) containing 10% foetal bovine serum, 2 mM L-glutamine, and 100 U mL−1 penicillin and 100 µg mL−1 streptomycin. Cells were maintained at 37 °C and 5% CO 2. Cells were seeded in 6-well plates at a density of 5 × 10^5 cells per well […]
# in 2 mL complete media to achieve 70–80% confluency the following day. […] The cells were lysed with ice cold radioimmunoprecipitation assay buffer (RIPA buffer, 500 μL; 150 mM sodium chloride, 0.1% w/w sodium dodecyl sulfate (SDS), 0.5% w/w sodium deoxycholate (NaDOC), 1% w/w Triton-X) and samples were collected for radioactivity counting. […]
row,Structure (SMILES),uptake in parental DU145 cells
1,"COCCOc1ccc(P(/C(C(=O)O)=C(/C(=O)NCCOCCOCCOCCOCCC(=O)NCCCC[C@H](NC(=O)N[C@@H](CCC(=O)O)C(=O)O)C(=O)O)P(c2ccc(OCCOC)cc2)c2ccc(OCCOC)cc2)c2ccc(OCCOC)cc2)cc1 [[^99mTcO2(DP^MEP-PSMAt)2]^+, metal not drawn]",negligible uptake
2,"COc1ccc(P(/C(C(=O)O)=C(/C(=O)NCCOCCOCCOCCOCCC(=O)NCCCC[C@H](NC(=O)N[C@@H](CCC(=O)O)C(=O)O)C(=O)O)P(c2ccc(OC)cc2)c2ccc(OC)cc2)c2ccc(OC)cc2)cc1 [[^99mTcO2(DP^An-PSMAt)2]^+, metal not drawn]",negligible uptake
